Source: patent publication US9006185B2, “Use of cell-permeable peptide inhibitors of the JNK signal transduction pathway for the treatment of various diseases” (Xigen Inflammation Ltd., priority 2008, dated 2015)
Entries after “also recorded” stand apart in the source; their conditions may differ.

Assays:
THP-1 cells = assay: LPS-induced cytokine and chemokine release in THP-1 cells; type: cell-based
[1] = tested on: Varicella-Zoster Virus (VZV); assay: Plaque reduction assay against VZV in HFFs; type: cell-based, human; details: for Spread of VZV (pfu) ± SD: 24 hours
Description: Additionally, inhibitors of cell functions may be toxic to cells, which could non-specifically prevent virus growth. […] Since this may falsify the results, a cytotoxicity assay was carried out first, determining the tolerance of the cultured cells to the test compound. Subsequently, a plaque reduction assay was carried out and then activity of the JNK inhibitor peptide XG-102 (SEQ ID NO: 11) was tested with respect to […] (VZV) in infected cells. • A) Determination of the Cytotoxicity of all-D Retro-Inverso Ib(s) Peptides: • For determination of toxicity, cultured cells (human foreskin fibroblasts (HFFs)) were seeded in 96-well tissue culture plates. Medium containing DMSO (same level as 5 μM XG-102 (SEQ ID NO: 11)), or XG-102 (SEQ ID NO: 11) was added at several concentrations of (1, 2, and 5 μM) for 24 h. Subsequently, a Neutral Red assay was carried out. Neutral Red colorimetric assays for cytotoxicity assays (in sets of 6 replicates) were used to set the maximum dose for subsequent efficacy assays (as performed in Taylor et al, 2004, J. Virology, 78:2853-2862). Live cells absorb Neutral Red and, accordingly, the level of absorbance is a quantitative measure of cell viability and number. Neutral Red uptake is directly proportional to the number of cells and also reflects normal endocytosis. Therefore, a brief pulse of Neutral Red was added to the medium at 0 or 24 hours. After fixation and extraction, dye was added and the amount of dye in each sample was measured in an ELISA plate reader at 540 nm (see FIG. 4). […] In this plaque reduction assay, confluent human foreskin fibroblasts (HFFs) in 24-well plates were inoculated with VZV-infected HFFs at a ratio of 1:100 (multiplicity of infection MOI=0.01) and adsorbed to the cells for 2 hours. The excess virus was washed out, and medium containing 0 (DMSO only), 0.5, 1, or 2 μM XG-102 (SEQ ID NO: 11) was added. One sample was taken at this time to measure the initial level of infection; wherein each well contained ˜150 pfu. After 24 hours, duplicate wells were trypsinized, and then the cell suspensions were titered on MeWo cell monolayers in triplicate to determine the number of VZV-infected cells in each sample. During unrestricted growth, VZV usually increases by 10-fold over 1 day because it propagates by cell-cell spread. […]

TC-3 cells = assay: IL-1 induced pancreatic beta-cell death, peptide treatment; type: cell-based; details: one single addition 1 μM, 15 days of incubation with IL-1
Description: Inhibition of IL-1 induced pancreatic beta-cell death by the D-TAT-IB1(s) peptide was analyzed. TC-3 cells were incubated as described above for 30 minutes with one single addition of the indicated peptides (1, μM), then IL-1 (10 ng/ml) was added.
Apoptotic cells were then counted after two days of incubation with IL-1 by use of Propidium Iodide and Hoechst 33342 nuclear staining. A minimum of 1,000 cells were counted for each experiment. Standard Error of the Means (SEM) are indicated, n=5.
Long term inhibition of IL-1P induced cell-death by the D-TAT-IB1 peptide was also analyzed. TC-3 cells were incubated as above for 30 minutes with one single addition of the indicated peptides (1 μM), then IL-1 (10 ng/ml) was added, followed by addition of the cytokine every two days. Apoptotic cells were then counted after 15 days of incubation with IL-1 by use of propidium iodide and Hoechst 33342 nuclear staining. […] A minimum of 1.000 cells were counted for each experiment.

[2] = kept at 4-8° C
Description: Unused diluted material could be stored for up to 7 days if kept at 4-8° C. c) Experimental Procedure

[3] = tested on: recombinant JNK1, JNK2 and JNK3; assay: Solid phase kinase assay, phosphorylation of c-Jun, ATF2 and Elk1 by recombinant JNKs; type: biochemical; details: GST-Jun (aa 1-73), JNK1, JNK2, JNK3, 0-250 μM dosage study
Description: The effects of the peptides on JNKs-mediated phosphorylation of their target transcription factors were investigated in vitro. Recombinant and non activated JNK1, JNK2 and JNK3 were produced using a TRANSCRIPTION AND TRANSLATION rabbit reticulocyte lysate kit (Promega) and used in solid phase kinase assays with c-Jun, ATF2 and Elk1, either alone or fused to glutathione-S-transferase (GST), as substrates. Dose response studies were performed wherein L-TAT or L-TAT-IB1(s) peptides (0-25 μM) were mixed with the recombinant JNK1, JNK2, or JNK3 kinases in reaction buffer (20 mM Tris-acetate, 1 mM EGTA, 10 mM p-nitrophenyl-phosphate (pNPP), 5 mM sodium pyrophosphate, 10 mM p-glycerophosphate, 1 mM dithiothreitol) for 20 minutes. The kinase reactions were then initiated by the addition of 10 mM MgCl2 and 5 pCi ^33P-dATP and 1 μg of either GST-Jun (aa 1-89), GST-AFT2 (aa 1-96) or GST-ELK1 (aa 307-428). GST-fusion proteins were purchased from Stratagene (La Jolla, Calif.).
Ten μL of glutathione-agarose beads were also added to the mixture. Reaction products were then separated by SDS-PAGE on a denaturing 10% polyacrylamide gel. Gels were dried and subsequently exposed to X-ray films (Kodak). […] The ability of D-TAT, D-TAT-IB1(s) and L-TAT-IB1(s) peptides (0-250 μM dosage study) to inhibit GST-Jun (aa 1-73) phosphorylation by recombinant JNK1, JNK2, and JNK3 by were analyzed as described above. […]

With `CC(C)C[C@@H](NC(=O)[C@@H](Cc1ccccc1)NC(=O)[C@H]1CCCN1C(=O)[C@@H](CCC(N)=O)NC(=O)[C@H](NC(=O)[C@H]1CCCN1C(=O)[C@@H](CCCNC(=N)N)NC(=O)[C@@H](CO)NC(=O)[C@@H](CCC(N)=O)NC(=O)[C@H](N)CC(=O)O)C(C)C)C(=O)N[C@H](CC(N)=O)C(=O)N[C@H](CC(C)C)C(=O)N[C@@H](C(=O)N[C@@H](C(=O)N1CCC[C@@H]1C(=O)N[C@H](CCCNC(=N)N)C(=O)N[C@H](CCCCN)C(=O)N1CCC[C@@H]1C(=O)N[C@H](CCCNC(=N)N)C(=O)N1CCC[C@@H]1C(=O)N1CCC[C@@H]1C(=O)N[C@H](CCCNC(=N)N)C(=O)N[C@H](CCCNC(=N)N)C(=O)N[C@H](CCCNC(=N)N)C(=O)N[C@H](CCC(N)=O)C(=O)N[C@H](CCCNC(=N)N)C(=O)N[C@H](CCCNC(=N)N)C(=O)N[C@H](CCCCN)C(=O)N[C@H](CCCCN)C(=O)N[C@H](CCCNC(=N)N)C(=O)NCC(=O)O)[C@H](C)O)[C@H](C)O` [XG-102] the “LPS-induced TNFa, IL-6 and MCP-1 release” value (THP-1 cells) was “reducing LPS-induced TNFa, IL-6 and MCP-1 release in THP-1 cells”, the “Spread of VZV (pfu) ± SD” value ([1]; 0.5 μM) was 260 ± 53 pfu and the “Spread of VZV (pfu) ± SD” value ([1]; 1.0 μM) was 212 ± 48 pfu. For the same compound, the “Spread of VZV (pfu) ± SD” value ([1]; 2.0 μM) was 312 ± 79 pfu, the “antiviral effect against VZV” value ([1]; 0.5, 1, 2 μM) was “potent inhibitor of Varizella Zoster Virus (VZV); also recorded: strong antiviral effect at all the concentrations tested” and the VZV yields ([1]; all the concentrations tested (0.5-2 μM)) was 200-300 pfu. For the same compound, the “long term protection from IL-1 induced cell death” value (TC-3 cells) was “able to confer long term (15 day) protection”, the “storage of unused diluted material” value [2] was “up to 7 days” and the “efficiency in decreasing JNK-mediated phosphorylation of c-Jun, fold less than L-TAT-IB1(s)” value [3] was 10-20 fold.
